Results on two compounds are retold here after patent publication US9290535B2, “Uridine-based gadolinium complex and MRI contrast agent including the same” (Korea University Researchand Business Foundation, priority 2011, dated 2016).

For data set [1] the following is noted: clinically used commercial T1 contrast agents, comparison values; cited from earlier work.
The nature of data set [2]: Relaxivity measurements (r1, r2) in PBS solution. Format: physicochemical. The settings on record: PBS solution, 36° C.
Experimental: Longitudinal and transverse relaxivities, r1 and r2, were measured at 20 MHz (0.47 T) and 60 MHz (1.41 T) at 36° C. on NMR (mq20 and mq60, Bruker, Germany) and animal MRI (Biospec 47/40, Bruker, Germany) systems. T1 and T2 relaxation times were measured with inversion recovery and spin-echo pulse sequences, respectively.
The relaxation efficiency of the newly synthesized amphiphilic MRI contrast agents according to the present invention was determined by measuring longitudinal relaxivity (r1) and transverse relaxivity (r2) at 20 MHZ (0.47 T) and 60 MHz (1.41 T) in phosphate buffered saline (PBS) solution at 36° C.
Data set [3] in a line: Contrast-enhanced dynamic MRI in mice (CNR in liver and blood). Type of data set: in vivo, Balb/C mice. The settings on record: i.v. injection, 4.7 T. Here is the method: The whole-body pharmacokinetics of T1 contrast agents can be measured by dynamic 2D or 3D MR imaging.
5-Week-old male Balb/C mice (n=3; OrientBio, Korea) were used for contrast-enhanced dynamic MRI. MRI was performed by using a 4.7 T MRI system (BioSpec 47/40; Bruker, Germany) with a quadrature birdcage RF coil (35 mm inner diameter) for signal transmission and reception.
Bolus of the contrast agents (0.1 mmol Gd/kg) was injected via tail vein. During MRI acquisition, the animals were anesthetized using 1-1.25% of inhalational isoflurane with O2:N2O (3:7) mixture.
To quantitatively measure signal intensity in region-of-interests (ROIs) as contrast-noise ratio (CNR), a reference of water sample (1 g/l CuSO4 in 8:2 of D2O:H2O) in a cylindrical tube (5 mm diameter) was used.
Dynamic 2D T1-weighted images were acquired using a spin-echo (SE) pulse sequence with the following parameters: TE/TR=10/400 ms, number of average=4, matrix size=256×256, slice thickness=1 mm, field of view=30×30 mm^2 (in axial slice) or 50×30 mm^2 (in coronal slice), and scan time=6 min 50 s).
Dynamic 3D T1-weighted images were acquired using a fast low angle shot gradient echo (FLASH) pulse sequence with parameters of TE/TR=2.4/7.5 ms, number of average=4, flip angle=30°, field of view=30×30×20 mm^3, matrix size=256×256×128, and scan time=12 min 17 s.

`CNC(=O)CN(CCN(CCN(CC(=O)[O-])CC(=O)NC)CC(=O)[O-])CC(=O)[O-].[Gd+3]` [Omniscan ®, Gd-DTPA-BMA, reference compound]: the “Relaxivity retained after transmetallation (commercial contrast agents)” value in data set [1] is 10%. In addition, the “Relaxivity r1” value was determined as 4.41 mM⁻¹ s⁻¹ in data set [2] (20 MHz (0.47 T)) and 3.68 mM⁻¹ s⁻¹ in data set [2] (60 MHz (1.41 T)). The “Peak CNR in liver” value in data set [3] is reported as “about 2.8”.

As to `CNC[C@H](O)[C@@H](O)[C@H](O)[C@H](O)CO.CNC[C@H](O)[C@@H](O)[C@H](O)[C@H](O)CO.O=C([O-])CN(CCN(CC(=O)[O-])CC(=O)O)CCN(CC(=O)[O-])CC(=O)O.[Gd+3]` [Magnevist ®, Gd-DTPA, reference compound], the “Relaxivity retained after transmetallation (commercial contrast agents)” value in data set [1] is listed as 50%. In addition, the figures for the “Relaxivity r1” value in data set [2] (20 MHz (0.47 T)) and in data set [2] (60 MHz (1.41 T)) were 4.70 mM⁻¹ s⁻¹ and 3.81 mM⁻¹ s⁻¹, respectively.
